Our source for the bioavailability values is patent US20060183696A1, “Use of immune cell specific conjugates for treatment of inflammatory diseases of gastrointestinal tract” (Pliva-Istrazivacki Institut d.o.o., priority 2004, published 2006).

This series in a line: in vivo. Particulars: male, rat, po.

Procedure: Male Sprague-Dawley rats weighing approximately 200 g were used. After weighing, each rat was given an earmark and placed into a cage. The day before the beginning of the study, animals were randomly distributed into 5 groups with 5 rats/group and placed into solid bottom cages, on wood dust-free bedding (VRF-1 Rodent's diet, Altromin Gmbh). During the experiment, the rats were maintained on a 12-h light-dark cycle. The rats were weighed and fasted for 12 hours prior to p.o. administration.
Compound 5 was administered p.o. in 0.125% carboxymethyl cellulose suspension. The dissolved substance was administered oral at a dose of 30 mg/kg body weight (b.w.), using 2.5 mL syringe (BD) and metal gavage. The administered volume was 10 mL/kg b.w.
Plasma and blood samples were obtained at the following time points after administration: 15, 30, 60, 120, 240, 360 and 480 minutes.
Blood samples were collected by puncturing the lateral tail vein. Prior to each blood sampling, animals were maintained in warming cabinets at 37° C. for 15 minutes. At each sampling time-point 50 μL of blood were collected and added to an Eppendorf test tube (1.5 mL) containing 50 μL demi water. Blood was collected according the time points stated in the protocol. Specimens were stored at −20° C. until analysis.
The concentrations of a compound 5 in the biological matrices were determined by a high performance liquid chromatography method using an acetonitrile and water (acidified by 0.1% formic acid) gradient as the chromatographic medium with tandem mass spectrometry detection (HPLC/MS-MS) (Guidance for Industry, Bioanalytical Method Validation, U.S. Department of Health and Human Services, Food and Drug Administration, May 2001).
Biological samples were prepared by deproteinization with acetonitrile, containing an internal standard. After centrifugation and evaporation of the supernatant fraction, samples were reconstituted in acetonitrile:water with addition of 0.1% formic acid.
HPLC separation was performed on a reverse phase C18 analytical column (Phenomenex C18(2)m 50×2 mm (3 μm) No 182700-5) with a guard column, maintained at ambient temperature, using a gradient of water:acetonitrile [0 min-1 min 10% acetonitrile, 2.5-3.5 minutes 80% acetonitrile, 3.5-5.6 min 10% acetonitrile with addition of 0.1% formic acid at flow rate 0.3 ml/min
MS-MS detection was performed in multi-resolution mode (MRM).
The concentration of the administered compound in biological matrices are calculated by the peak area ratios of compound 5 to an internal standard of roxithromycin using calibration curves and quality control samples.
The pharmacokinetic parameters were calculated using the PK solutions 2.0 software (Summit Research Services, Pharmacokinetics and Metabolism Software).
The pharmacokinetic parameters were calculated as disclosed herein to obtain the bioavailability wherein F=(AUC p.o.(0−∞)/AUC i.v. (0−∞))/(Di.v./Dp.o.).

`CC[C@H]1OC(=O)[C@H](C)[C@@H](OC2C[C@@](C)(OC)[C@@H](O)[C@H](C)O2)[C@H](C)C(O[C@@H]2O[C@H](C)C[C@H](N(C)C)[C@H]2O)[C@](C)(O)C[C@@H](C)CN(CCCNCCC(=O)O[C@]2(C(=O)OC)[C@H](C)CC3C4C[C@H](F)C5=CC(=O)C=C[C@]5(C)[C@@]4(F)[C@@H](O)C[C@@]32C)[C@H](C)[C@@H](O)[C@]1(C)O` (stereo partly shown) [10′] gave a bioavailability of less than 1%.
